What all share (format): cell-based
In one experiment the target is T1, MmaR (MmaRDSM5686) (Methylobacterium fujisawaense, UniProt A0ABR6DCX3).
T1 construct: gene GGQ91_003337; mmaR inserted in genome of Methylorubrum extorquens AWP227 (mlaR/mlaI deleted) under native mlaR promoter; reporter strain AWP370 with mmaI promoter-mScarlet
Put plainly: mScarlet reporter activation in M. extorquens AWP370.

The target in another experiment is T2, Mrad2831_5763 (MmaI) (Methylobacterium radiotolerans, UniProt B1M2Q9).
T2 construct: heterologously expressed
T2 sequence (B1M2Q9 1-207): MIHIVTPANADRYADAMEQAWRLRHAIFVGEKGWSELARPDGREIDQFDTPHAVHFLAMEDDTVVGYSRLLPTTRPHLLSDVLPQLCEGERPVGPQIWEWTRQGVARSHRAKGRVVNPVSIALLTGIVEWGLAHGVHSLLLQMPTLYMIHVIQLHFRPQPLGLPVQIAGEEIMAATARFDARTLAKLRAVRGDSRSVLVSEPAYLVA
Put plainly: LC-MS/MS of culture extract after heterologous expression. To be noted: product identified by m/z, retention time and fragmentation.

For the next experiment, the target named is T3, MmaI (Ga0373204_3345) (Methylobacterium fujisawaense, UniProt A0ABR6DCY1).
T3 construct: gene GGQ91_003338; native expression in DSM5686; deletion mutant as control
T3 sequence (A0ABR6DCY1 entry or part of it): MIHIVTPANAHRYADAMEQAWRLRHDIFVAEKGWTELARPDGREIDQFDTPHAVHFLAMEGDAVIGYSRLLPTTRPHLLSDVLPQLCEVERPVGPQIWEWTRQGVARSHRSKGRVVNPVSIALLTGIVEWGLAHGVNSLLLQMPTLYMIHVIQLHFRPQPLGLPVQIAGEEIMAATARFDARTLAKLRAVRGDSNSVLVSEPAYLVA
Put plainly: LC-MS/MS, NMR of culture extract; deletion mutant control. To be noted: native strain grown on methanol.

Results on two compounds are retold here after paper PMC10790750, “A widespread methylotroph acyl-homoserine lactone synthase produces a new quorum sensing signal that regulates swarming in Methylobacterium fujisawaense” (mBio, 2023).

Read-outs that look alike come from different tables or passages of the source.

T1 sequence (A0ABR6DCX3 entry or part of it): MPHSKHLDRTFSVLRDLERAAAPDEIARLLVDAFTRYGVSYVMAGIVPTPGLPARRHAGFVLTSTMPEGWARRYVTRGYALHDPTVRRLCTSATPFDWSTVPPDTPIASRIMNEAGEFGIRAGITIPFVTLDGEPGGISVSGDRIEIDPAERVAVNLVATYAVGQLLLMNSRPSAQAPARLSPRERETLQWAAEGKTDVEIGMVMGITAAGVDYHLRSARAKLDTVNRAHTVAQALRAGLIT

The EC50 is the concentration giving half of the maximal effect. High values mean a need for much substance, low ones an effect from little substance. Take `CCCCCC/C=C\C[C@@H](O)CC(=O)NC1CCOC1=O` (stereo partly drawn) [3R-OH-5Z-C12:1-HSL, N-(3R-hydroxy-5-cis-dodecenoyl)-L-homoserine lactone]: the EC50 at MmaR (MmaRDSM5686) (purified natural signal added, mmaI promoter-mScarlet reporter, agonist) is 0.2 nM. At Mrad2831_5763 (MmaI), the “LC-MS/MS of culture extract after heterologous expression” value is “we observed a feature with the same m/z, retention time, and fragmentation pattern”. In addition, at MmaI (Ga0373204_3345), the “LC-MS/MS, NMR of culture extract; deletion mutant control” value is reported as “this feature was not present in a culture of an in-frame, unmarked deletion mutant”.

Compound `CCCCCCCCCC(O)CC(=O)N[C@H]1CCOC1=O` (stereo partly shown) [3-OH-C12-HSL] showed a concentration for a half-maximal effect (EC50) on MmaR (MmaRDSM5686) of 1.7 nM.
